Tests used:
U87MG [1] = test: Wound-healing scratch (cell migration) assay; format: cell-based, human; settings: HMGB1 0.1 μg mL^−1, 24 h
Protocol: A wound-healing scratch assay was performed in U87MG to evaluate the effect of GL, Lf and Lf-GL treatment on the cancer cell migration. Cells were seeded in 100 mm-cell culture dishes, 2.0 × 10^6 cells per dish. After the cells were grown to 80% confluence, a scratch was made through the cell monolayer with a 200 μL pipet tip, and it was washed with PBS. Photographs (4 ×) were taken in each of three different scratch areas, and their location on the dish was marked. GL (50 × 10^–6 M), Lf (5 × 10^–6 M) or Lf-GL (1 × 10^–6 M) dissolved in serum-free medium were added to cells with or without HMGB1 protein (0.1 μg mL^−1). Then, cells were incubated for 24 h, and the same areas were re-photographed. Migration distances were examined using the scale bar.

HUVEC [2] = test: Capillary tube formation assay; format: cell-based, human; settings: HMGB1 (+) control vs HMGB1 (-) control, 24 h
Protocol: A 24-well plate was coated with of Matrigel® (200 μL, Corning, NY, USA) and was incubated for 30 min in 37℃ incubators. HUVECs were seeded upon a coated Matrigel® 24-well plate (seeding density: 5.0 × 10^4 cells per well). Subsequently, cells were treated with GL (50 × 10^–6 M), Lf (5 × 10^–6 M) or Lf-GL (1 × 10^–6 M) and incubated for 24 h. Then, Calcein AM was added to each well, and the formation of tubes was observed using fluorescence microscopy. These tubes were quantified using Image J.

HUVEC [3] = test: HMGB1-mediated HUVEC proliferation (CCK-8); format: cell-based, human
Protocol: (§1) Cell viability was determined using a cell counting kit-8 (CCK-8). U87MG and HUVECs (seeding density: 0.75 × 10^4 cells per well) in 96-well culture plates were treated with GL, Lf, or Lf-GL (25 to 200 × 10^–6 M of GL equivalent concentration) and were incubated for different periods of time (24, 48, and 72 h). After washing with PBS, they were treated with a cell culture medium containing a CCK-8 assay kit (Abbkine) and were incubated at 37 °C and 5% CO2 for 2 h. Then, absorbance was measured at 450 nm in a micro-plate reader (VLBL00D0, Thermo Fisher Scientific). Results were quantified using Sigma Plot (Systat Software, USA). To determine the effect of extracellular HMGB1 in GBM and endothelial cell proliferation, U87MG and HUVECs were seeded in 96-well culture plates (seeding density: 0.75 × 10^4 cells per well) and GL, Lf, or Lf-GL (50 × 10^–6 M GL equivalent concentration) were added to cells with or without HMGB1 protein (U87MG: 0.1 μg mL^−1, and HUVEC: 1 μg mL^−1). Cells were incubated for different periods of time (24, 48, and 72 h).

U87MG [4] = test: HMGB1-mediated GBM cell proliferation (CCK-8); format: cell-based, human
Protocol: as §1

ERK phosphorylation = test: Western blot of phospho-ERK/ERK in HUVEC; format: cell-based, human; settings: 24 h of treatment with HMGB1
Protocol: Total cellular protein concentration was determined using a BCA Protein Assay Kit (Pierce, Rockford, IL, USA). Equal amounts of protein from cell lysates were loaded onto a 12% sodium dodecyl sulfate–polyacrylamide gel. After electrophoresis, proteins were transferred to polyvinylidene fluoride membranes blocked with 5% bovine serum albumin for 1 h at room temperature and were diluted 1:500 with the indicated primary antibodies (rabbit anti-ERK1/2, anti-phospho-ERK1 and β-actin antibodies [Cell Signaling Technology, INC.]). Then, the membrane was washed 3 times for 15 min with tris-buffered saline containing Tween 20 and was incubated with HRP-conjugated secondary antibody for 1 h at room temperature. After washing three times for another 15 min with Tris-buffered saline with Tween 20, immune complexes were detected with an enriched chemiluminescent reagent (EZ-Western Lumi Femto, DoGen, South Korea) and staining was quantified by densitometry analysis using an Alpha Imager 2200.

rat aortic rings = test: Aorta ring assay (ex vivo); settings: VEGF 25 ng mL^−1 positive control, 14 days
Protocol: An aorta ring assay was conducted to confirm the anti-angiogenesis effect of Lf-GL ex vivo. A 48-well plate was coated with of Matrigel® (100 μL) and was incubated for 30 min or more in 37℃ incubators. In the meantime, thoracic aortas of 7-week-old male SD rats were excised. Then, the fat layer and outer membrane were removed, and rings approximately 1 mm in length were prepared. The prepared aortic rings were seeded on a coated Matrigel® of 48-well plate and were covered with Matrigel®. (100 μL) Subsequently, the aortic ring was treated with a control (with or without 25 ng mL^−1 of VEGF) or different concentrations of Lf-GL complex. Medium was changed once every two days. Fourteen days after treatment, optical images of sprouting microvessels were obtained using microscopy magnification (× 40 or × 100). Sprouting microvessel area was quantified using Image J and Sigma Plot.
Fig. S14. Significant inhibitory effect of Lf-GL in aortic ring angiogenesis. Optical images of vessel regression in aortic ring with Lf-GL treatment. Aortic ring assay was carried out in 48-well plate coated with Matrigel. VEGF-non treated control represents that aortic ring incubated with normal medium. VEGF-treated control represents that aortic ring incubated with 25 ng mL^-1 VEGF-conditioned medium. […]

Substance | Migration distance more than HMGB1-nontreated cell (U87MG [1]) [μm] | Increase of newly generated micro-vessels (tube number) (HUVEC [2]) [%] | Angiogenic potential (viability) of HUVEC vs control (HUVEC [3]; HMGB1 1 μg mL^−1, day 1) [%] | Angiogenic potential (viability) of HUVEC vs control (HUVEC [3]; HMGB1 1 μg mL^−1, day 2) [%] | Angiogenic potential (viability) of HUVEC vs control (HUVEC [3]; HMGB1 1 μg mL^−1, day 3) [%] | Tumor growth compared to controls not treated with HMGB1 (U87MG [4]; HMGB1 0.1 μg mL^−1, day 1) [%] | Tumor growth compared to controls not treated with HMGB1 (U87MG [4]; HMGB1 0.1 μg mL^−1, day 2) [%] | Tumor growth compared to controls not treated with HMGB1 (U87MG [4]; HMGB1 0.1 μg mL^−1, day 3) [%] | Increase of p-ERK level compared to non-treatment (ERK phosphorylation) [times] | Increase of outgrowth of endothelial tubules (rat aortic rings) [%]
HMGB1: High-mobility group box-1 protein added to cells as stimulus | 121.3 ± 42.8 | 21.0 ± 2.1 | 108.2 ± 7.9 | 137.9 ± 12.3 | 169.8 ± 18.1 | 110.7 ± 8.2 | 133.4 ± 1.3 | 140.7 ± 5.2 | 2.3 | –
VEGF [reference compound] | – | – | – | – | – | – | – | – | – | 51.1 ± 105.2

Reference: PMC10200060, “Inhibition of DAMP actions in the tumoral microenvironment using lactoferrin-glycyrrhizin conjugate for glioblastoma therapy” (Biomaterials Research, 2023)
